Measurements reported in the NIST ThermoML archive (doi:10.1021/acs.jced.7b00769).

Test: xn = mol fraction of the nth substance listed
Details: Gas, isochoric method

FC(F)(F)/C=C/Cl [(E)-1-chloro-3,3,3-trifluoroprop-1-ene] + CC(C)C
Details	specific volume [m3/kg]
303.15 K, 113.3 kPa, x2 = 0.125	0.174
303.15 K, 186.5 kPa, x2 = 0.564	0.1429
308.15 K, 115.4 kPa, x2 = 0.125	0.1741
308.15 K, 190.1 kPa, x2 = 0.564	0.1429
313.15 K, 117.5 kPa, x2 = 0.125	0.1741
313.15 K, 193.7 kPa, x2 = 0.564	0.143
313.15 K, 197.4 kPa, x2 = 0.453	0.1261
318.15 K, 119.6 kPa, x2 = 0.125	0.1742
318.15 K, 197.5 kPa, x2 = 0.564	0.143
318.15 K, 200.9 kPa, x2 = 0.453	0.1262
318.15 K, 340.9 kPa, x2 = 0.746	0.0926
323.15 K, 121.8 kPa, x2 = 0.125	0.1742
323.15 K, 200.9 kPa, x2 = 0.564	0.143
323.15 K, 204.5 kPa, x2 = 0.453	0.1262
323.15 K, 347.6 kPa, x2 = 0.746	0.0926
328.15 K, 123.8 kPa, x2 = 0.125	0.1742
328.15 K, 204.3 kPa, x2 = 0.564	0.143
328.15 K, 208 kPa, x2 = 0.453	0.1262
328.15 K, 353.9 kPa, x2 = 0.746	0.0926
333.15 K, 125.8 kPa, x2 = 0.125	0.1743
333.15 K, 207.8 kPa, x2 = 0.564	0.1431
333.15 K, 211.4 kPa, x2 = 0.453	0.1262
333.15 K, 360.6 kPa, x2 = 0.746	0.0926
333.15 K, 648.1 kPa, x2 = 0.865	0.0535
338.15 K, 128.2 kPa, x2 = 0.125	0.1743
338.15 K, 211.1 kPa, x2 = 0.564	0.1431
338.15 K, 214.9 kPa, x2 = 0.453	0.1263
338.15 K, 366.9 kPa, x2 = 0.746	0.0926
338.15 K, 576.1 kPa, x2 = 0.644	0.0499
338.15 K, 661.4 kPa, x2 = 0.865	0.0535
343.15 K, 130.2 kPa, x2 = 0.125	0.1744
343.15 K, 214.6 kPa, x2 = 0.564	0.1431
343.15 K, 218.5 kPa, x2 = 0.453	0.1263
343.15 K, 373.2 kPa, x2 = 0.746	0.0927
343.15 K, 587.5 kPa, x2 = 0.644	0.0499
343.15 K, 674.5 kPa, x2 = 0.865	0.0536
348.15 K, 132.2 kPa, x2 = 0.125	0.1744
348.15 K, 218 kPa, x2 = 0.564	0.1432
348.15 K, 222 kPa, x2 = 0.453	0.1263
348.15 K, 379.5 kPa, x2 = 0.746	0.0927
348.15 K, 598.7 kPa, x2 = 0.644	0.0499
348.15 K, 687.5 kPa, x2 = 0.865	0.0536
353.15 K, 134.4 kPa, x2 = 0.125	0.1744
353.15 K, 221.4 kPa, x2 = 0.564	0.1432
353.15 K, 225.5 kPa, x2 = 0.453	0.1264
353.15 K, 385.8 kPa, x2 = 0.746	0.0927
353.15 K, 609.8 kPa, x2 = 0.644	0.0499
353.15 K, 700.5 kPa, x2 = 0.865	0.0536
358.15 K, 136.3 kPa, x2 = 0.125	0.1745
358.15 K, 224.6 kPa, x2 = 0.564	0.1432
358.15 K, 229 kPa, x2 = 0.453	0.1264
358.15 K, 391.8 kPa, x2 = 0.746	0.0927
358.15 K, 620.8 kPa, x2 = 0.644	0.0499
358.15 K, 713.3 kPa, x2 = 0.865	0.0536
363.15 K, 138.3 kPa, x2 = 0.125	0.1745
363.15 K, 228.1 kPa, x2 = 0.564	0.1433
363.15 K, 232.1 kPa, x2 = 0.453	0.1264
363.15 K, 398.1 kPa, x2 = 0.746	0.0927
363.15 K, 631.1 kPa, x2 = 0.644	0.05
363.15 K, 726.1 kPa, x2 = 0.865	0.0536
368.15 K, 140.4 kPa, x2 = 0.125	0.1745
368.15 K, 231.5 kPa, x2 = 0.564	0.1433
368.15 K, 235.6 kPa, x2 = 0.453	0.1264
368.15 K, 404.2 kPa, x2 = 0.746	0.0928
368.15 K, 642.6 kPa, x2 = 0.644	0.05
368.15 K, 738.7 kPa, x2 = 0.865	0.0536
373.15 K, 142.3 kPa, x2 = 0.125	0.1746
373.15 K, 234.8 kPa, x2 = 0.564	0.1433
373.15 K, 239.1 kPa, x2 = 0.453	0.1265
373.15 K, 410.7 kPa, x2 = 0.746	0.0928
373.15 K, 653.2 kPa, x2 = 0.644	0.05
373.15 K, 751.4 kPa, x2 = 0.865	0.0536
378.15 K, 144.4 kPa, x2 = 0.125	0.1746
378.15 K, 238.2 kPa, x2 = 0.564	0.1434
378.15 K, 242.6 kPa, x2 = 0.453	0.1265
378.15 K, 416.9 kPa, x2 = 0.746	0.0928
378.15 K, 664.1 kPa, x2 = 0.644	0.05
378.15 K, 763.9 kPa, x2 = 0.865	0.0536
383.15 K, 146.5 kPa, x2 = 0.125	0.1747
383.15 K, 241.7 kPa, x2 = 0.564	0.1434
383.15 K, 246.4 kPa, x2 = 0.453	0.1265
383.15 K, 423.2 kPa, x2 = 0.746	0.0928
383.15 K, 675 kPa, x2 = 0.644	0.05
383.15 K, 776.5 kPa, x2 = 0.865	0.0536
